Values quoted from earlier work in patent publication US7429577B2, “Augmentation of atypical antipsychotic agent pharmacotherapy with chromium supplementation” (priority 2002, dated 2008).

What was measured:
[1] = humans, in particular subjects with plasma cholesterol above the 200 μg/ml level
[2] = healthy volunteers, 200 μg chromium picolinate per day
[3] = obese Caucasian patients with type-II diabetes receiving sulphonylurea and metformin
[4] = olanzapine treatment of patients

Molecule	blood lipids [1]	LDL cholesterol decreased by [2]	fasting blood glucose decreased by [2]	glycosylated hemoglobin decreased by [2]	total cholesterol decreased by [2]	fasting insulin levels and glucose control [3]	levels of insulin, leptin, blood lipids; insulin resistance [4]
chromium picolinate	efficacious in lowering blood lipids	11%	24%	19%	13%	lowering fasting insulin levels without impairing glucose control	–
Cc1cc2c(s1)Nc1ccccc1N=C2N1CCN(C)CC1 [olanzapine]	–	–	–	–	–	–	elevated levels of insulin, leptin, and blood lipids, as well as insulin resistance
